COc1cc(/C=C/C(=O)CC(=O)/C=C/c2ccc(O)c(OC)c2)ccc1O
solubility (mole fraction)
Settings	278.15 K	283.15 K	288.15 K	293.15 K	298.15 K	303.15 K	308.15 K	313.15 K	318.15 K	323.15 K
in DMSO	0.137	0.16	0.184	0.211	0.24	0.271	0.303	0.338	0.375	0.413
in THF	0.113	0.134	0.157	0.183	0.211	0.239	0.27	0.302	0.336	0.371
in acetone	0.00834	0.00986	0.0118	0.0138	0.0162	0.0189	0.022	0.0257	0.0298	0.0345
in acetonitrile	0.00071	0.00083	0.00097	0.00113	0.00129	0.00149	0.00169	0.00194	0.00221	0.00253
in ethanol	0.00041	0.00048	0.00056	0.00065	0.00075	0.00086	0.00098	0.00111	0.00127	0.00145
in ethyl acetate	0.00176	0.00199	0.00227	0.00253	0.00285	0.00319	0.00357	0.00399	0.00447	0.00501
in isopropanol	0.00156	0.00177	0.002	0.00226	0.00254	0.00285	0.00319	0.00356	0.00398	0.00444
in m-xylene	0.00015	0.00018	0.00022	0.00026	0.00031	0.00036	0.00042	0.00049	0.00057	0.00066
in methanol	0.00029	0.00033	0.00038	0.00044	0.0005	0.00057	0.00066	0.00075	0.00087	0.001
in n-butanol	0.00049	0.00057	0.00066	0.00075	0.00086	0.00099	0.00114	0.00131	0.00151	0.00175
in n-heptane	5e-05	9e-05	0.00013	0.00017	0.00022	0.00027	0.00032	0.00038	0.00044	0.00052
in n-hexane	7e-05	0.00011	0.00015	0.00019	0.00024	0.00029	0.00035	0.00041	0.00048	0.00057
